Data published in EP0414533A1, “Use of iodopropargyl esters of alpha-amino acid derivatives as antimicrobial agents” (ROHM AND HAAS COMPANY, priority 1989, dated 1991).
≈ marks a conversion by molar mass, not a printed value. Where two headings read alike, the source gives them in different places.

Legend:
[1] = tested on: MIXED COOLING TOWER ALGAE; test: MIC test against mixed cooling tower algae; type: cell-based, green algae and blue-green bacteria; conditions: Table VIII
Protocol: The algae culture contains green algae and blue-green bacteria, and is obtained from a cooling tower in Spring House, Pennsylvania. The algae culture is grown in Allen's medium on a rotary shaker under flourescent room lighting. This culture is further diluted with Allen's medium and then added to the test vessel.

[2] = tested on: Escherichia coli (ECOL); test: Minimum inhibitory concentration (MIC), broth two-fold serial dilution test; conditions: Escherichia coli, IIIB, read-out: MIC (G-) ECOL, trypticase soy broth (complex media); Table IIIb
From the text: When the test is ready to be done, each vessel in the dilution series, except the first vessel, contains an equal volume of compound free broth. The first vessel contains twice the volume of broth with the starting concentration of test compound. One half of the broth from the first vessel is transferred to the second vessel. After being mixed, one half the resulting volume is removed from the second vessel and transferred to the third vessel. The entire cycle is repeated sufficiently to give a series of concentrations amounting to 500, 250, 125, 63, 31, 16, 8, and 4 ppm (or 100, 50, 25, 12.5, 6.2, 3.1, 1.6, and 0.8), respectively.
Each vessel is then inoculated with a cell suspension of the appropriate test organism. Bacteria are grown in broth, fungi on agar slants for a time and at a temperature appropriate to the species being tested, and algae are a mixture of green algae and blue-green bacteria grown in a nutrient media. At the end of the growth period, in the case of bacteria, the broth is vortexed to disperse the cells.
The vessels are then incubated at the appropriate temperature. After the incubation, the vessels are examined for growth/no growth.

[3] = tested on: Cochliobolus sativus (HEL); test: In-vitro plant fungicide test; type: cell-based; conditions: Bipolaris sorokiniana
[4] = tested on: Septoria nodorum (SEP); test: In-vitro plant fungicide test; type: cell-based; conditions: Parastagonospora nodorum
[5] = tested on: Rhizoctonia solani (RHI); test: In-vitro plant fungicide test; type: cell-based; conditions: Rhizoctonia solani
[6] = tested on: Xanthomonas campestris (XAN); test: In-vitro plant fungicide test; type: cell-based; conditions: Xanthomonas campestris; 25 ppm; Table IVa; read-out: % Control at 25 ppm XAN
[7] = tested on: THREE FUNGI; test: MIC test against three fungi in Mycophile Broth, pH 5.0, read after 8 days (Table VII); type: cell-based; conditions: 192 h, serial dilutions from 50 ppm, read after 8 days of incubation
[8] = tested on: ALT; test: In-vitro plant fungicide test; type: cell-based; conditions: Table IVb, read-out: % Control at (ppm) indicated ALT
[9] = tested on: 8 FUNGI; test: Microbicides secondary test against 8 fungi on Mycophile Agar at pH 5.0 (Table VI); type: cell-based; design: key: 1= no growth; 0= growth of the indicated fungi at dose indicated in ppm; conditions: for ANIG growth: Aspergillus niger; for APUL growth: Aureobasidium pullulans; for CGLO growth: Chaetomium globosum; for CRES growth: Cladosporium resinae; for GTRA growth: Gloeophyllum trabeum; for PFUN growth: Penicillium funiculosum; for RRUB growth: Rhodotorula rubra; for SSER growth: Sacharomyces cerevisiae
From the text: The results of the minimum inhibitory concentration (MIC) tests of compounds of this invention are shown in Tables IIIa IIIb, IIIc, V, VI, VII, and VIII against the microorganisms shown in Table IX.

[10] = tested on: MON; test: In-vitro plant fungicide test; type: cell-based; conditions: Table IVb, read-out: % Control at (ppm) indicated MON
[11] = tested on: Pseudomonas aerugenosa (PSAE); test: Minimum inhibitory concentration (MIC), broth two-fold serial dilution test; conditions: Pseudomonas, IIIB, read-out: MIC (G-) PSAE, trypticase soy broth (complex media); Table IIIb
[12] = tested on: Aspergillus niger (ANIG); test: as above; type: cell-based; conditions: Aspergillus niger, IIIB, trypticase soy broth (complex media); Table IIIb; read-out: MIC (F) ANIG
[13] = tested on: UST; test: In-vitro plant fungicide test; type: cell-based; conditions: Table IVb, read-out: % Control at (ppm) indicated UST
[14] = tested on: Staphylococcus aureus (SAUR); test: Minimum inhibitory concentration (MIC), broth two-fold serial dilution test; conditions: Staphylococcus aureus, IIIB, read-out: MIC (G+) SAUR, trypticase soy broth (complex media); Table IIIb
[15] = tested on: PSH; test: In-vitro plant fungicide test; type: cell-based; conditions: Table IVb, read-out: % Control at (ppm) indicated PSH
[16] = tested on: Pythium ultimum (PYU); test: In-vitro plant fungicide test; type: cell-based; conditions: Globisporangium ultimum

CC(=O)NCC(=O)OCC#CI [Compound 28, N-acetylglycine iodopropargyl ester]
MIC [1]: 6.2 µg/mL (≈ 22.1 µM)
MIC [2]: 63 µg/mL (≈ 224 µM)
inhibition of growth at 1.5 ppm ([3]; 1.5 ppm, Table IVb, read-out: % Control at (ppm) indicated HEL): 0%
inhibition of growth at 6 ppm ([3]; 6 ppm, Table IVb, read-out: % Control at (ppm) indicated HEL): 100%
inhibition of growth at 25 ppm ([3]; Table IVa, *=Phytotoxic, read-out: % Control at 25 ppm HEL): 100%
inhibition of growth at 25 ppm ([3]; Table IVb, read-out: % Control at (ppm) indicated HEL): 100%
inhibition of growth at 0.2 ppm ([3]; .2 ppm, Table IVb, read-out: % Control at (ppm) indicated HEL): 0%
inhibition of growth at 0.4 ppm ([3]; .4 ppm, Table IVb, read-out: % Control at (ppm) indicated HEL): 0%
inhibition of growth at 0.8 ppm ([3]; .8 ppm, Table IVb, read-out: % Control at (ppm) indicated HEL): 0%
inhibition of growth at 1.5 ppm ([4]; 1.5 ppm, Table IVb, read-out: % Control at (ppm) indicated SEP): 0%
inhibition of growth at 6 ppm ([4]; 6 ppm, Table IVb, read-out: % Control at (ppm) indicated SEP): 0%
inhibition of growth at 25 ppm ([4]; Table IVa, read-out: % Control at 25 ppm SEP): 100%
inhibition of growth at 25 ppm ([4]; Table IVb, read-out: % Control at (ppm) indicated SEP): 100%
inhibition of growth at 0.2 ppm ([4]; .2 ppm, Table IVb, read-out: % Control at (ppm) indicated SEP): 0%
inhibition of growth at 0.4 ppm ([4]; .4 ppm, Table IVb, read-out: % Control at (ppm) indicated SEP): 0%
inhibition of growth at 0.8 ppm ([4]; .8 ppm, Table IVb, read-out: % Control at (ppm) indicated SEP): 0%
inhibition of growth at 1.5 ppm ([5]; 1.5 ppm, Table IVb, read-out: % Control at (ppm) indicated RHI): 100%
inhibition of growth at 6 ppm ([5]; 6 ppm, Table IVb, read-out: % Control at (ppm) indicated RHI): 100%
inhibition of growth at 25 ppm ([5]; Table IVa, read-out: % Control at 25 ppm RHI): 100%
inhibition of growth at 25 ppm ([5]; Table IVb, read-out: % Control at (ppm) indicated RHI): 100%
inhibition of growth at 0.2 ppm ([5]; .2 ppm, Table IVb, read-out: % Control at (ppm) indicated RHI): 0%
inhibition of growth at 0.4 ppm ([5]; .4 ppm, Table IVb, read-out: % Control at (ppm) indicated RHI): 0%
inhibition of growth at 0.8 ppm ([5]; .8 ppm, Table IVb, read-out: % Control at (ppm) indicated RHI): 0%
inhibition of growth at 25 ppm [6]: 50%
MIC ([7]; Aspergillus niger, read-out: MIC ANIG): 12.5 µg/mL (≈ 44.5 µM)
MIC ([7]; Aureobasidium pullulans, read-out: MIC APUL): 50 µg/mL (≈ 178 µM)
MIC ([7]; Gloeophyllum trabeum, read-out: MIC GTRA): 6.2 µg/mL (≈ 22.1 µM)
inhibition of growth at 1.5 ppm ([8]; 1.5 ppm): 0%
inhibition of growth at 3 ppm ([8]; 3 ppm): 0%
inhibition of growth at 6 ppm ([8]; 6 ppm): 75%
inhibition of growth at 12 ppm ([8]; 12 ppm): 100%
inhibition of growth at 25 ppm ([8]; 25 ppm): 100%
inhibition of growth at 0.2 ppm ([8]; .2 ppm): 0%
inhibition of growth at 0.4 ppm ([8]; .4 ppm): 0%
inhibition of growth at 0.8 ppm ([8]; .8 ppm): 0%
ANIG growth ([9]; 0.2 PPM): 0
ANIG growth ([9]; 1.0 PPM): 0
ANIG growth ([9]; 2.5 PPM): 0
ANIG growth ([9]; 25 PPM): 1
APUL growth ([9]; 0.2 PPM): 0
APUL growth ([9]; 1.0 PPM): 0
APUL growth ([9]; 2.5 PPM): 0
APUL growth ([9]; 25 PPM): 1
CGLO growth ([9]; 0.2 PPM): 0
CGLO growth ([9]; 1.0 PPM): 0
CGLO growth ([9]; 2.5 PPM): 0
CGLO growth ([9]; 25 PPM): 1
CRES growth ([9]; 0.2 PPM): 0
CRES growth ([9]; 1.0 PPM): 0
CRES growth ([9]; 2.5 PPM): 0
CRES growth ([9]; 25 PPM): 1
GTRA growth ([9]; 0.2 PPM): 0
GTRA growth ([9]; 1.0 PPM): 0
GTRA growth ([9]; 2.5 PPM): 0
GTRA growth ([9]; 25 PPM): 1
PFUN growth ([9]; 0.2 PPM): 0
PFUN growth ([9]; 1.0 PPM): 0
PFUN growth ([9]; 2.5 PPM): 0
PFUN growth ([9]; 25 PPM): 1
RRUB growth ([9]; 0.2 PPM): 0
RRUB growth ([9]; 1.0 PPM): 0
RRUB growth ([9]; 2.5 PPM): 0
RRUB growth ([9]; 25 PPM): 1
SSER growth ([9]; 0.2 PPM): 0
SSER growth ([9]; 1.0 PPM): 0
SSER growth ([9]; 2.5 PPM): 0
SSER growth ([9]; 25 PPM): 1
inhibition of growth at 1.5 ppm ([10]; 1.5 ppm): 0%
inhibition of growth at 6 ppm ([10]; 6 ppm): 100%
inhibition of growth at 25 ppm ([10]; 25 ppm): 100%
inhibition of growth at 0.2 ppm ([10]; .2 ppm): 0%
inhibition of growth at 0.4 ppm ([10]; .4 ppm): 0%
inhibition of growth at 0.8 ppm ([10]; .8 ppm): 0%
MIC [11]: 63 µg/mL (≈ 224 µM)
MIC [12]: 2 µg/mL (≈ 7.12 µM)
inhibition of growth at 1.5 ppm ([13]; 1.5 ppm): 50%
inhibition of growth at 3 ppm ([13]; 3 ppm): 100%
inhibition of growth at 6 ppm ([13]; 6 ppm): 100%
inhibition of growth at 12 ppm ([13]; 12 ppm): 100%
inhibition of growth at 25 ppm ([13]; 25 ppm): 100%
inhibition of growth at 0.2 ppm ([13]; .2 ppm): 0%
inhibition of growth at 0.4 ppm ([13]; .4 ppm): 0%
inhibition of growth at 0.8 ppm ([13]; .8 ppm): 0%
MIC [14]: 63 µg/mL (≈ 224 µM)
inhibition of growth at 1.5 ppm ([15]; 1.5 ppm): 95%
inhibition of growth at 6 ppm ([15]; 6 ppm): 100%
inhibition of growth at 25 ppm ([15]; 25 ppm): 100%
inhibition of growth at 0.2 ppm ([15]; .2 ppm): 0%
inhibition of growth at 0.4 ppm ([15]; .4 ppm): 0%
inhibition of growth at 0.8 ppm ([15]; .8 ppm): 0%
inhibition of growth at 1.5 ppm ([16]; 1.5 ppm, Table IVb, read-out: % Control at (ppm) indicated PYU): 0%
inhibition of growth at 6 ppm ([16]; 6 ppm, Table IVb, read-out: % Control at (ppm) indicated PYU): 100%
inhibition of growth at 25 ppm ([16]; Table IVa, read-out: % Control at 25 ppm PYU): 100%
inhibition of growth at 25 ppm ([16]; Table IVb, read-out: % Control at (ppm) indicated PYU): 100%
inhibition of growth at 0.2 ppm ([16]; .2 ppm, Table IVb, read-out: % Control at (ppm) indicated PYU): 0%
inhibition of growth at 0.4 ppm ([16]; .4 ppm, Table IVb, read-out: % Control at (ppm) indicated PYU): 0%
inhibition of growth at 0.8 ppm ([16]; .8 ppm, Table IVb, read-out: % Control at (ppm) indicated PYU): 0%
